From patent US5888405A, “Methods for controlling biofouling using amino methyl phosphonic acids” (Buckman Laboratories International Inc., priority 1997, dated 1999)
Values joined by “and” are separate entries in the source; they are usually repeats but may differ in a detail not shown here. Equal entries are not always repeated. Where two headings read alike, the source gives them in different places. Values belong to the compound of their own block, whether it stands above or below them.

Assays:
Format in all cases: cell-based
[1] = test system: Bacteria of the genera Bacillus, Flavobacterium, and Pseudomonas; test: Quantitative method of evaluation of bacterial adhesion (crystal violet absorbance, % IBA), Example 4; conditions: for inhibition at 100 ppm: 168 h; for Score (% IBA), inhibition of bacterial adhesion: 100 ppm
Text: (§1) The following method effectively defines the ability of a chemical compound to inhibit bacterial adhesion, or attack the formation of existing attached microorganisms, on various types of surfaces. As an overview, bioreactors were constructed in which approximately 1 in.×3 in. slides (glass or stainless steel) were fixed to the edge of the bioreactor. The lower ends (approx. 2 in.) of the slides dipped into a bacterial growth medium (pH 7) within the bioreactor which contained a known concentration of the test chemical. Following inoculation with known bacterial species, the test solutions were stirred continuously for 3 days. Unless otherwise indicated in the results below, the medium within the bioreactor was turbid by the end of three days. […] A staining procedure was then used on the slides in order to determine the amount of bacteria attached to the surfaces of the slides.
(§2) The bioreactors comprised a 400 ml glass beaker over which a lid (cover from a standard 9 cm diameter glass petri dish) was placed. With the lid removed, slides of the material of choice were taped at one end with masking tape and suspended inside the bioreactor from the top edge of the beaker. This allows the slides to be submerged within the test medium. Typically, four slides (replicates) were uniformly spaced around the bioreactor. The score presented below are the average of the four replicates. A magnetic stirring bar was placed in the bottom of the unit, the lid positioned, and the bioreactor autoclaved. Two different types of material were used as slides, stainless steel as a metal and glass as a hydrophilic surface.
(§3) The liquid medium utilized in the bioreactors was described previously by Delaquis, et al., "Detachment Of Pseudomonas fluorescens From Biofilms On Glass Surfaces In Response To Nutrient Stress", Microbial Ecology 18:199-210, 1989. The composition of the medium was:
(§4) The medium was autoclaved and then allowed to cool. If a sediment formed in the autoclaved medium, the medium was resuspended by shaking before use.
(§5) Bacteria of the genera Bacillus, Flavobacterium, and Pseudomonas were isolated from a paper mill slime deposit and maintained in continuous culture. The test organisms were separately streaked onto plate count agar and incubated at 30° C. 24 hours. With a sterile cotton swab, portions of the colonies were removed and suspended in sterile water. The suspensions were mixed very well and were adjusted to an optical density of 0.858 (Bacillus), 0.625 (Flavobacterium), and 0.775 (Pseudomonas) at 686 nm.
(§6) Biofilm Production/Chemical Testing: To four separate bioreactors was added 200 ml of the sterile medium prepared above. Chemicals to be evaluated as biodispersants were first prepared as a stock solution (40 mg/2 ml) using either water or a 9:1 acetone:methanol mixture (ac/MeOH) as a solvent. A 1.0 ml aliquot of the stock solution was added to the bioreactor using moderate, continuous magnetic stirring. This provided an initial concentration of 100 ppm for the test compound. One bioreactor (Control) contains no test compound. Aliquots (0.5 ml) from each of the three bacterial suspensions were then introduced into each bioreactor. The bioreactors were then provided with continuous stirring for three days to allow for an increase in bacterial population and deposition of cells onto the surfaces of the slides.
The test method, construction of bioreactors, bacterial growth medium, preparation of bacterial inocula, and biofilm/chemical testing are the same as those in EXAMPLE 3.
After 48 h or 168 h (1 week) of incubation at 26°-28° C. the slides were removed from the bioreactors and were positioned vertically to […] using a staining procedure. The slides were briefly flamed in order to fix the cells to the surface, and then transferred for one minute to a container of Gram Crystal Violet (DIFCO Laboratories, Detroit, Mich.). […]

[2] = test system: Bacteria of the genera Bacillus, Flavobacterium, and Pseudomonas; test: Bacterial adhesion to submerged slides in bioreactor, Gram Crystal Violet staining, visual biofilm score (Example 3); parameters: scale not given here; conditions: 100 ppm, acetone, 3 days, pH 7, average of four replicates, control 3-4
Text: as §1, §2, §3, §4, §5, §6
After the test was completed, the slides were removed from the bioreactors and were positioned vertically to permit air drying. The degree of adhesion of bacteria to the test surface was then estimated using a staining procedure. The slides were briefly flamed in order to fix the cells to the surface, and then transferred for two minutes to a container of Gram Crystal Violet (DIFCO Laboratories, Detroit, Mich.). The slides were gently rinsed under running tap water, and then carefully blotted. The degree of bacterial adhesion was then determined by visual examination and subjective scoring of each slide. […]

E. Aerogenes = test: Minimum inhibitory concentration, 18 hour Basal Salts test; conditions: for MIC: Klebsiella aerogenes, 18 h
Method: ^1 Minimum inhibitory concentration (MIC) for each compound against
the bacteria E. Aerogenes using an 18 hour Basal Salts test at pH 6 and p

[3] = glass slides, acetone, 168 h incubation at 26-28° C., 50% or greater considered effective
[4] = stainless steel (SS) slides, acetone, 168 h incubation at 26-28° C., 50% or greater considered effective

Compound: O=P(O)(O)CN1CCOCC1 [e]
inhibition at 100 ppm ([1]; read-out: Score (% IBA), inhibition of bacterial adhesion, glass slides, acetone, 168 h incubation at 26-28° C., 50% or greater considered effective): 52%
inhibition at 100 ppm ([1]; read-out: Score (% IBA), inhibition of bacterial adhesion, stainless steel (SS) slides, acetone, 168 h incubation at 26-28° C., 50% or greater considered effective): 33%
Score (biofilm score, bacterial adhesion) ([2]; glass slides): 3
Score (biofilm score, bacterial adhesion) ([2]; stainless steel (SS) slides): 3 and 2.3
MIC (E. Aerogenes; pH 8, read-out: Minimum inhibitory concentration (MIC), pH 8): > 500 µg/mL

MIC (E. Aerogenes; pH 6, pH 6, read-out: Minimum inhibitory concentration (MIC)): > 100 µg/mL
Compound: CCCCCCCCN(CCCCCCCC)CP(=O)(O)O [g, dioctyl amino methyl phosphonic acid]
inhibition at 100 ppm ([1]; glass slides, acetone, 168 h incubation at 26-28° C., 50% or greater considered effective, read-out: Score (% IBA), inhibition of bacterial adhesion): 78%
inhibition at 100 ppm ([1]; stainless steel (SS) slides, acetone, 168 h incubation at 26-28° C., 50% or greater considered effective, read-out: Score (% IBA), inhibition of bacterial adhesion): 67%
Score (biofilm score, bacterial adhesion) ([2]; glass slides): 2.0

Compound: butyl amino methyl phosphonic acid
Score (% IBA), inhibition of bacterial adhesion [1, 3]: 21 % IBA
Score (% IBA), inhibition of bacterial adhesion [1, 4]: 36 % IBA
Minimum inhibitory concentration (MIC) (E. Aerogenes; pH 8): > 500

Compound: decyl amino methyl phosphonic acid
Score (% IBA), inhibition of bacterial adhesion [1, 3]: 5 % IBA
Score (% IBA), inhibition of bacterial adhesion [1, 4]: 62 % IBA
Score (biofilm score, bacterial adhesion) ([2]; glass slides): 2.25
Score (biofilm score, bacterial adhesion) ([2]; stainless steel (SS) slides): 1.25 and 2.3
Minimum inhibitory concentration (MIC) (E. Aerogenes; pH 6): > 100
Minimum inhibitory concentration (MIC) (E. Aerogenes; pH 8): > 500

Compound: dodecyl amino methyl phosphonic acid
Score (% IBA), inhibition of bacterial adhesion [1, 3]: 43 % IBA
Score (% IBA), inhibition of bacterial adhesion [1, 4]: 54 % IBA
Score (biofilm score, bacterial adhesion) ([2]; stainless steel (SS) slides): 3 and 4
Minimum inhibitory concentration (MIC) (E. Aerogenes; pH 6): > 100
Minimum inhibitory concentration (MIC) (E. Aerogenes; pH 8): > 500

Compound: hexyl amino methyl phosphonic acid
Score (% IBA), inhibition of bacterial adhesion [1, 3]: 36 % IBA
Score (% IBA), inhibition of bacterial adhesion [1, 4]: 42 % IBA
Score (biofilm score, bacterial adhesion) ([2]; glass slides): 3.0
Score (biofilm score, bacterial adhesion) ([2]; stainless steel (SS) slides): 1.0 and 2.0
Minimum inhibitory concentration (MIC) (E. Aerogenes; pH 6): > 100
Minimum inhibitory concentration (MIC) (E. Aerogenes; pH 8): > 500

Compound: octadecyl amino methyl phosphonic acid [f]
Score (% IBA), inhibition of bacterial adhesion [1, 3]: 81 % IBA
Score (% IBA), inhibition of bacterial adhesion [1, 4]: 39 % IBA
Score (biofilm score, bacterial adhesion) ([2]; stainless steel (SS) slides): 2.25 and 2.70
Minimum inhibitory concentration (MIC) (E. Aerogenes; pH 6): > 100
Minimum inhibitory concentration (MIC) (E. Aerogenes; pH 8): > 500
